The values below come from paper PMC4604170 (PLoS ONE, 2015).

Each structure is given as a SMILES string.

Series [1] can be described thus: Corneal and aqueous humour vancomycin quantification by LC-MS. The settings on record: for Vancomycin in the aqueous humour: rabbit; for Vancomycin in the aqueous humour / Corneal vancomycin concentration / Aqueous humour vancomycin concentration: LC-MS; for Corneal vancomycin concentration / Aqueous humour vancomycin concentration: after 4 days of vancomycin 1.4% drops 5 times/day; for Period of drop instillation required to achieve MIC in the cornea: vancomycin 1.4% drops five times a day. In kind it is in vivo, New Zealand White rabbits. On the procedure:
Prior to starting the antibiotic regimen, the cornea of the right eye had complete epithelial debridement following application of 20% alcohol for 60 seconds, whereas the epithelium of the left cornea was not debrided.
Aqueous humour samples (120–150 μL) were extracted with three equivalents of methanol (Merck, Darmstadt, Germany). The samples were shaken for 5 min at 1200 rpm (20°C) and centrifuged for 10 min at 16,000 g (4°C). The supernatants were transferred to fresh tubes and dried in a vacuum concentrator. Cornea samples were cut and ground with a pestle while frozen. They were next homogenized on ice with 300 μL of 3:1 methanol/water with 0.1% formic acid (Sigma Aldrich, St. Louis, MO, USA) for 1 min. The homogenates were then spun down briefly on a capsule centrifuge and supernatants transferred to fresh tubes. The residues were homogenized and spun down a second time. The extracts were combined and centrifuged for 10 min at 16,000 g (4°C). The supernatants were transferred to fresh tubes and dried in a vacuum concentrator. Samples were reconstituted in water (Ultrapure water, Millipore purification unit) and centrifuged for 5 min at 16,000 g (10°C) before transferring to autosampler vials for LC-MS/MS analysis.
Chromatographic separation was performed on a Waters 2695 Separations Module (Milford, MA, USA) with a Thermo Scientific Hypersil Gold C18 column (Whaltham, MA, USA) (2.1 × 50 mm, 3 μm). The mobile phase was A: 0.1% formic acid in water and B: 0.1% formic acid in acetonitrile. The gradient profile was 2% B at 0 min, 25% B at 6 min, 90% B from 6.5 to 8.5 min and 2% B from 9 to 13 min. The flow rate was 0.3 ml/min. The autosampler and column heater temperatures were maintained at 10 and 30°C, respectively. Detection was performed by an AB Sciex API 2000 triple quadrupole mass spectrometer (Concord, Canada) with an electrospray ionization source operating in the positive ionization mode. The ion source voltage was set to 5 kV.

In series [2] the test system is Staphylococcus aureus ATCC29213. The series can be described thus: Effectiveness of prophylaxis once the corneal MIC was achieved (inoculation after 16 days of drops). In kind it is in vivo, New Zealand White rabbits. As to conditions: inoculation after 16 days of vancomycin 1.4% drops 5 times/day; 3 rabbits with titanium film implant. On the procedure: Following bacterial inoculation, development of infection was assessed clinically with SLP and AS-OCT imaging.

The conditions of series [3]: no data for the cornea; cited from earlier work. The source says: It may therefore bind to lectin-like proteins of the stromal extracellular matrix, reducing its bioavailability fur ...

As to `CN[C@H](CC(C)C)C(=O)N[C@H]1C(=O)N[C@@H](CC(N)=O)C(=O)N[C@H]2C(=O)N[C@H]3C(=O)N[C@H](C(=O)N[C@H](C(=O)O)c4cc(O)cc(O)c4-c4cc3ccc4O)[C@H](O)c3ccc(c(Cl)c3)Oc3cc2cc(c3O[C@@H]2O[C@H](CO)[C@@H](O)[C@H](O)[C@H]2O[C@H]2C[C@](C)(N)[C@H](O)[C@H](C)O2)Oc2ccc(cc2Cl)[C@H]1O` [vancomycin], the “Vancomycin in the aqueous humour” value was “not detected” in series [1] (after 2 days of vancomycin 1.4% drops 5 times/day), “below the level of quantification” in series [1] (day 10 of vancomycin 1.4% drops 5 times/day) and “below the level of quantification” in series [1] (day 16 of vancomycin 1.4% drops 5 times/day). Further, the Corneal vancomycin concentration worked out at 2.57 ± 0.40 µg/mL in series [1] (with epithelial removal (right eye, 20% alcohol 60 seconds), 3 rabbits, p = 0.115) and 1.36 ± 0.45 µg/mL in series [1] (without epithelial removal (left eye), 3 rabbits without implant). For the same compound, the “Aqueous humour vancomycin concentration” value is 0.43 ± 0.15 µg/mL in series [1] (with epithelial removal, p = 0.063) and 0.04 ± 0.005 µg/mL in series [1] (without epithelial removal). Besides, the “Period of drop instillation required to achieve MIC in the cornea” value in series [1] (100% compliance, epithelium not debrided) is given as 16 days; in series [1] (epithelium debrided), at most 4 days. The “Rabbits showing evidence of corneal infection by day 2 post-inoculation” value in series [2] is 2 of the 3. Also, the Binding to proteins entry in series [3] is on record as “moderate”.
